Results reported in PMC9314723, “The aqueous stability and interactions of organoruthenium compounds with serum proteins, cell culture medium, and human serum” (Metallomics: Integrated Biometal Science, 2022).

Experiments:
[1] = CZE stability study in H2O and 20 mM phosphate buffer (pH 7.4); format: physicochemical; conditions: 200 μM; for Stability in water (peak areas of cationic species constant): complex cations of 2 and 3, or initial aquation products of 1 and 3, CZE over 24 h
Procedure: Stability studies of complexes 1–3 were carried out in both H2O and 20 mM phosphate buffer (pH 7.4). Stock solutions for the complexes were prepared in methanol (2 mM). The samples were diluted just before the first measurement to a final complex concentration of 200 μM. Tris(acetylacetonato)cobalt(III) [Co(acac)3] was added as an internal standard to all samples at a final concentration of 100 μM. The stability was studied for 24 h by monitoring changes in the peak areas over time.
(§1) All measurements were performed in at least triplicate on a CE system G7100 (Agilent, Waldbronn, Germany) equipped with a long-life deuterium lamp (8 pin) with an radio-frequency identification (RFID) tag. A capillary (fused silica, 50 μm ID, Polymicro Technologies) with a total length of 50 cm and an effective length of 40 cm was installed for the separation with ultraviolet (UV) detection. The capillary zone electrophoresis (CZE)–UV data and peak areas presented were recorded at 200 nm, while the internal standard signal was recorded at 254 nm in the samples containing αMEM and human serum, as other neutral species were overlapping the signal at 200 nm. For HSA binding site studies, 210 nm was selected as the evaluation wavelength.
(§2) New capillaries were conditioned with HCl (0.1 M) and H2O followed by NaOH (1.0 M) and H2O for 10 min each followed by flushing with BGE [phosphate buffer (20 mM, pH 7.4)] for 20 min. The same procedure was carried out as daily conditioning. The capillary was flushed with BGE (3 min) before each run and was rinsed with HCl (0.1 M; 30 s), H2O (30 s), NaOH (1.0 M, 2 min), and H2O (2 min) after each separation. The sample tray and the capillary were kept at 25°C. Samples were injected hydrodynamically (50 mbar for 5 s) and the voltage applied was +20 kV for 5 min. The current reading was 23–24 μA.

HSA = molecular target: T1, HSA (Homo sapiens, UniProt P02768); experiment: CZE interaction study with HSA; format: binding
T1 construct: purchased Sigma-Aldrich A3782
T1 sequence (P02768 25-609): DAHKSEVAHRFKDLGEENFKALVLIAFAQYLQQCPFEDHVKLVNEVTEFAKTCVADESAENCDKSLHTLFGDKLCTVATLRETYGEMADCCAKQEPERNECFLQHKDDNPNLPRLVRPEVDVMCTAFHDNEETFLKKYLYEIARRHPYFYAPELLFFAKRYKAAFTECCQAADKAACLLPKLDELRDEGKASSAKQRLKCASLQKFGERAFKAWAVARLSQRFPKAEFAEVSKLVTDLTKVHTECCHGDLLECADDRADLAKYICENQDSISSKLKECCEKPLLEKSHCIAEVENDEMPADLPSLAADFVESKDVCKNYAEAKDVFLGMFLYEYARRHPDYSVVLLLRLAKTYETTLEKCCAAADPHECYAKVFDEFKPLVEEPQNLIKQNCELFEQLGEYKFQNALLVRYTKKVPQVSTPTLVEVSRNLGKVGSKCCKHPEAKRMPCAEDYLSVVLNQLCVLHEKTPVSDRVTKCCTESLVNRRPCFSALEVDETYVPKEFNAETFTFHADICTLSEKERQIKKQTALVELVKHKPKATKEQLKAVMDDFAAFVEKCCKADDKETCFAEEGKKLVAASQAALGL
Procedure: (§3) Stock solutions of HSA and Tf in BGE were prepared (400 μM). Studies were performed for 1 and 2 at complex (200 μM):protein ratios of 1:1, 10:1, and 20:1. The PCA complex 3 was investigated at complex (200 μM):protein ratios of 20:1 and 50:1 for HSA and at 10:1 and 20:1 for Tf. Samples were prepared just before the first measurement. BGE was used for dilution and [Co(acac)3] was added as the internal standard to all samples at a final concentration of 100 μM.
as §1, §2

Tf [2] = molecular target: T2, Tf (Homo sapiens, UniProt P02787); experiment: CZE interaction study with Tf; format: binding
T2 construct: purchased Sigma-Aldrich
T2 sequence (P02787 20-698): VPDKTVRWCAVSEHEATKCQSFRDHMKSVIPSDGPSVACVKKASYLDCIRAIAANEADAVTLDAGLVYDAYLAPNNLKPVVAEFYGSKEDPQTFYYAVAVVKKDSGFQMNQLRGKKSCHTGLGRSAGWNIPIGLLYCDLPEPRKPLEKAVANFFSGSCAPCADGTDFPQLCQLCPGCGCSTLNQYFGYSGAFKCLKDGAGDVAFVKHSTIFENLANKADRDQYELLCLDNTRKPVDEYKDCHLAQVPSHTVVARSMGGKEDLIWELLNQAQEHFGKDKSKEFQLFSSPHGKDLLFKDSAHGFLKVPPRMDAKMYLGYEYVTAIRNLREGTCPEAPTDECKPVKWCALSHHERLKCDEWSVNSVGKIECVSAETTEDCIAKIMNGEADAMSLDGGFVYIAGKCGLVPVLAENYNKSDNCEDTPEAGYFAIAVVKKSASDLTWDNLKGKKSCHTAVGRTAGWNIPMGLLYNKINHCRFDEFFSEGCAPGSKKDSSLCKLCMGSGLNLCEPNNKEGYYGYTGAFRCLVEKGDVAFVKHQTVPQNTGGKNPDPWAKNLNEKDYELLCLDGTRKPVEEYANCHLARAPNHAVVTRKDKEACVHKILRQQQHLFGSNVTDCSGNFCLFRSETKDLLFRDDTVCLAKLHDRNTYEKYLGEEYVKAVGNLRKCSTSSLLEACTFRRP
Procedure: as §3, §1, §2

HSA binding site II = molecular target: T3, HSA binding site II (Homo sapiens, UniProt P02768); experiment: Competitive displacement study, HSA binding site II (Ds marker), CZE; conditions: for % Ds bound: Ds:HSA (100 μM) 2:1, n = 3
T3 construct: purchased Sigma-Aldrich A1653
T3 sequence (P02768 25-609): as the sequence (P02768 25-609) above
Procedure: The affinity of complex 1 for binding sites I and II on HSA was investigated with Wf as the site marker for binding site I and Ds for site II by tracking the peak area for unbound Wf and Ds, respectively. Stock solutions of Wf, Ds, and HSA were prepared in H2O at concentrations of 800, 800, and 200 μM, respectively. Wf or Ds were incubated with HSA (100 μM) at a ratio of 2:1 for at least 1 h at room temperature before complex 1 was added at final concentrations of 200, 400, or 800 μM. The final concentration of methanol was 10% in all samples. Calibration curves for Wf or Ds in the range of 50–300 μM were determined before the start of each displacement study, to allow for accurate quantification of the amounts of Ds or Wf displaced by complex 1.
as §1
(§4) For the binding site studies with HSA, a modified version of a CE method was applied.[21] Before each run, the capillary was flushed with BGE (2 min), then +28 kV voltage was applied for 30 s followed by 1 min of flushing with BGE and the capillary was rinsed with HCl (0.1 M; 2 min), H2O (2 min), NaOH (1.0 M, 2 min), and H2O (2 min) after each separation. The sample tray and the capillary were kept at 25°C. Samples were injected hydrodynamically (30 mbar for 5 s) and the voltage applied was +28 kV for 5 min. The current reading was 34 μA.

HSA binding site I = molecular target: T4, HSA binding site I (Homo sapiens, UniProt P02768); experiment: Competitive displacement study, HSA binding site I (Wf marker), CZE; conditions: for % Wf bound: Wf:HSA (100 μM) 2:1, n = 3
T4 construct: purchased Sigma-Aldrich A1653
T4 sequence (P02768 25-609): as above
Procedure: The final concentration of methanol was 10% in all samples.
as §1, §4

Tf [3] = molecular target: T2, Tf; experiment: FT-ICR-MS adduct formation with Tf; format: binding; conditions: complex:Tf 5:1 in water
Procedure: The adduct formation between complex 1 and Tf was further studied using a Bruker Solarix XR 7 T FT–ICR–MS. A mixture of 1 and Tf in ratio 5:1 in H2O (18 MΩ, Millipore) was incubated for 24 h. A sample was collected after 0 and 24 h, and the samples were frozen until analysis. The samples were diluted 1:100 with 0.1% formic acid in H2O (18 MΩ, Millipore) prior to analysis, producing a final concentration of 2 μM for complex 1 and 0.4 μM for Tf. A separate standard of Tf at 0.4 μM was also prepared and analyzed.

Aqueous solubility = format: physicochemical
human cancer cells = conditions: cited from earlier work
[4] = design: method as in PMID 31357065; conditions: cited from earlier work
[5] = CZE interaction study with cell culture medium; format: in vitro ADME; conditions: complex 200 μM, medium diluted 1:10, complex:albumin 133:1
Procedure: The interactions of complexes 1–3 with cell culture medium (αMEM with 5% FBS) were investigated. The αMEM was diluted 1:10 with BGE and the complex concentrations were kept at 200 μM and [Co(acac)3] at 100 μM. The dilution corresponded to a complex:albumin ratio of 133:1.
as §1
(§5) New capillaries were conditioned with HCl (0.1 M) and H2O followed by NaOH (1.0 M) and H2O for 10 min each followed by flushing with BGE [phosphate buffer (20 mM, pH 7.4)] for 20 min. The same procedure was carried out as daily conditioning. […] The current reading was 23–24 μA.

[6] = CZE interaction study with human serum; format: in vitro ADME; conditions: complex 200 μM, serum diluted 1:100, complex:albumin about 50:1
Procedure: The interactions of complexes 1–3 with human serum were investigated after diluting the serum 1:100 with BGE and the complex concentrations were kept at 200 μM and for [Co(acac)3] at 100 μM. The dilution corresponded to a complex:protein ratio of about 50:1 with regard to albumin content.
as §1, §5

plectin = tested on: plectin; design: method as in earlier work; conditions: cited from earlier work
HSA and Tf = tested on: HSA and Tf; design: method as in PMID 15907879; conditions: cited from earlier work

Cc1ccc(C(C)C)cc1.[Cl-].[O-]c1cccc2cccnc12.[Ru+2] [Complex 1, [Ru^II(cym)(8-HQ)Cl]]
Speciation on dilution with water or BGE ([1]; migration relative to EOF marker [Co(acac)3]): underwent ligand exchange to form a cationic species | Stability in water (peak areas of cationic species constant) [1]: at least 24 h | Binding to HSA, complex peak (HSA; complex (200 μM):HSA 1:1): complex peak was not detectable in the first run | Binding to HSA (HSA; complex (200 μM):HSA 10:1, over 2 h): majority of complex 1 was found attached to either protein | Fraction of complex remaining unbound (HSA; complex (200 μM):HSA 20:1, after 2 h): about a quarter to a third | Binding to Tf, complex peak (Tf [2]; complex (200 μM):Tf 1:1): complex peak was not detectable in the first run | Binding to Tf (Tf [2]; complex (200 μM):Tf 10:1, over 2 h): majority of complex 1 was found attached to either protein | Fraction of complex remaining unbound (Tf [2]; complex (200 μM):Tf 20:1, after 2 h): about a quarter to a third | % Ds bound (HSA binding site II; 200 μM complex 1, 0 h): 44 ± 6% | % Ds bound (HSA binding site II; 200 μM complex 1, 24 h): 50 ± 7% | % Ds bound (HSA binding site II; 200 μM complex 1, 48 h): 45 ± 7% | % Ds bound (HSA binding site II; 400 μM complex 1, 0 h): 35 ± 7% | % Ds bound (HSA binding site II; 400 μM complex 1, 24 h): 19 ± 11% | % Ds bound (HSA binding site II; 400 μM complex 1, 48 h): 33 ± 7% | % Ds bound (HSA binding site II; 800 μM complex 1, 0 h): Fully displaced | % Ds bound (HSA binding site II; 800 μM complex 1, 24 h): Fully displaced | % Ds bound (HSA binding site II; 800 μM complex 1, 48 h): Fully displaced | Binding to site II on HSA (displacement of Ds) (HSA binding site II; at higher molar ratios): binds to both sites I and II on HSA | % Wf bound (HSA binding site I; 200 μM complex 1, 0 h): 58 ± 4% | % Wf bound (HSA binding site I; 200 μM complex 1, 24 h): 59 ± 4% | % Wf bound (HSA binding site I; 200 μM complex 1, 48 h): 51 ± 4% | % Wf bound (HSA binding site I; 400 μM complex 1, 0 h): 26 ± 9% | % Wf bound (HSA binding site I; 400 μM complex 1, 24 h): 23 ± 5% | % Wf bound (HSA binding site I; 400 μM complex 1, 48 h): 33 ± 8% | % Wf bound (HSA binding site I; 800 μM complex 1, 0 h): Fully displaced | % Wf bound (HSA binding site I; 800 μM complex 1, 24 h): Fully displaced | % Wf bound (HSA binding site I; 800 μM complex 1, 48 h): Fully displaced | Binding to site I on HSA (displacement of Wf) (HSA binding site I; at higher molar ratios): binds to both sites I and II on HSA | Adducts formed with Tf (Tf [3]; after 24 h): [Tf + 3 Ru(cym)(8-HQ)] was dominant | Adducts formed with Tf (Tf [3]; immediately after mixing (0 h)): adducts with one, two, and three Ru(cym)(8-HQ) moieties attached to the protein | Aqueous solubility (Aqueous solubility): limited aqueous solubility | IC50 values (antiproliferative properties) (human cancer cells): low micromolar range | Halido/aqua ligand exchange in aqueous environment (1H NMR) [4]: undergo halido/aqua ligand exchange quickly

C1N2CN3CN1CP(C2)C3.Cc1ccc(C(C)C)cc1.O=S(=O)([O-])C(F)(F)F.[O-]c1cccc2cccnc12.[Ru+2] [Complex 2, [Ru^II(cym)(8-HQ)(PTA)](SO3CF3)]
Stability in water (peak areas of cationic species constant) [1]: at least 24 h | Interaction with HSA (HSA; complex (200 μM):HSA 1:1, 10:1, 20:1, over 1 d): does not interact with either protein | Interaction with Tf (Tf [2]; complex (200 μM):Tf 1:1, 10:1, 20:1, over 1 d): does not interact with either protein | Interaction with αMEM spiked with 5% FBS [5]: no interactions were observed | Interaction with human serum [6]: no interactions were observed | Halido/aqua ligand exchange in aqueous environment (1H NMR) [4]: inert

Cc1ccc(C(C)C)cc1.Fc1ccc(NC(=S)c2ccccn2)cc1.[Cl-].[Cl-].[Ru+2] [Complex 3, [Ru^II(cym)(PCA)Cl]Cl]
Stability in water (peak areas of cationic species constant) [1]: at least 24 h | Observation on incubation with HSA (HSA; complex (200 μM):HSA 20:1 and 50:1, data not analysable): precipitation | Decrease in Tf peak area (Tf [2]; complex:Tf 10:1): 62% | Decrease in Tf peak area (Tf [2]; complex:Tf 20:1): 82% | Decrease in peak area of complex 3 (Tf [2]; complex:Tf 20:1): 37% | Interaction with αMEM spiked with 5% FBS [5]: precipitation was observed | Interaction with human serum [6]: precipitation was observed | IC50 values (antiproliferative properties) (human cancer cells): low micromolar range | Protein target (plectin): specifically target the scaffold protein and cytolinker plectin

[Cl-].[Cl-].[Cl-].[Cl-].[Ru+3].c1ccc2[nH][nH+]cc2c1.c1ccc2[nH]ncc2c1.c1ccc2[nH]ncc2c1 [KP1019, Indazolium Trans-[Tetrachlorobis(1H-Indazole)Ruthenate(III)]]
Relative rate of binding to serum proteins (HSA and Tf): bind quicker to Tf than HSA
